Patent US3981983A, “Rapid, radiochemical-ligand binding assay for methotrexate” (priority 1975, dated 1976)

Assays:
[1] = type: physicochemical; conditions: 4°C, buffer A pH 6.0 with albumin
Experimental: The assay reaction is carried out in an aqueous solution of 0.01 M potassium phosphate, 0.15 M potassium chloride, pH 6.0, hereinafter referred to as buffer A. In the assay procedure, buffer A has added thereto about 1 mg of albumin per ml and other additons as noted.
As previously indicated, a binder cofactor comprising reduced nicotinamide adenine dinucleotide phosphate or NADPH2 was added to the reaction solution in the amounts noted below at the time of the assay.

[2] = molecular target: T1, folic acid reductase (binder factor) (Cavia porcellus, UniProt H0VYF1); assay: Cofactor dependency of ^3H-MTX binding; set-up: species or system guinea pig; conditions: for binding of ^3H-MTX with cofactor substituted for NADPH2: 1,000 times the optimal concentration of NADPH2; for inhibition of the MTX binding reaction: NADPH2 in slight excess, until concentration reached several thousand fold excess to NADPH2
T1 construct: NADPH as cofactor
T1 sequence (H0VYF1 1-187): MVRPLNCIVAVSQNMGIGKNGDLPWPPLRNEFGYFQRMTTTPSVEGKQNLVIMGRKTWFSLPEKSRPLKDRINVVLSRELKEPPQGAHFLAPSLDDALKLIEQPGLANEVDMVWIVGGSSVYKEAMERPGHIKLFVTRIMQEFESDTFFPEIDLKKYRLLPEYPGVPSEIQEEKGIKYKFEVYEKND
Experimental: (§1) The binder factor or folic acid reductase was prepared from guinea pig liver according to the method of Bertino et al, "Dihydrofolate Reductase From Guinea Pig Liver And Small Intestine,"Biochemical Pharmacology 15, pages 563 - 571, 1966 modified as noted below. The livers from freshly killed guinea pigs were rinsed in cold isotonic saline, suspended in 3 volumes (weight/volume) of the same, and homogenized in an Omnimixer (Sorvall, Inc.) for two minutes at 90 volts. The pH of the homogenate was adjusted to 5.1 with 1.0 N HCl. The homogenate was centrifuged at 12,000 × G for 15 minutes, and the pellet was discarded.
(§2) Ammonium sulfate was added to the supernatant to 55% of saturation at 4°C and, when necessary, the pH was adjusted to 6.0 with 1.0 N KOH. After standing for 30 minutes at 4°C, the precipitate was collected by centrifugation for 15 minutes at 12,000 × G and discarded. The supernatant was brought to a final ammonium sulfate concentration of 70% of saturation, again keeping the pH at 6.0, and stored overnight at 4°C. The resultant precipitate was recovered by centrifugation, as above, and dissolved in a minimal volume of 0.01 M potassium phosphate buffer, pH 7.0, which was 0.01 M with respect to KCl. The burgundy colored solution was applied to a Sephadex G-50 column (5 × 100 cm) equilibrated in 0.01 M potassium phosphate, pH 7.0, and 0.2 M KCl; the same buffer was used for elution of the sample.
The eluted material from the column was collected in 5 ml samples, and the binder factor or folic acid reductase eluted from the column behind the excluded volume which was marked by the hemoglobin peak. Sephadex permitted a rapid removal of ammonium sulfate and also gave a partial purification of the binder. Yields of 60% to 80% of the activity present in the crude homogenate were obtained with this methodology.
The maximum binding was identical to the binding observed in the presence of 0.1 μmole NADPH2.

[3] = molecular target: T1, folic acid reductase (binder factor); assay: Direct binding of labeled folates to the binder preparation; set-up: species or system guinea pig; conditions: at the concentration of reactants used in the standard curves
Experimental: as §1
as §2, with “The burgundy colored solution was applied to a Sephadex G-50 column (5 × 100 cm) equilibrated in 0.01 M potassium phosphate, pH 7.0, and 0.2 M KCl; the same buffer was used for elution of the sample.” left out

[4] = molecular target: T1, folic acid reductase (binder factor); assay: Reliability, recovery and sensitivity of the radiochemical ligand binding assay for MTX in serum and cerebrospinal fluid; set-up: species or system guinea pig; conditions: presence of ascorbic acid
Experimental: (§3) The samples in Table II were assayed by sequential binding procedures in accordance with the present invention, and they were assayed at multiple dilutions as previously described.

[5] = molecular target: T1, folic acid reductase (binder factor); assay: Specificity of the binder: competition with ^3H-MTX in direct competitive and sequential binding assays; set-up: species or system guinea pig; conditions: other folate derivatives up to 200 fold excess relative to ^3H-MTX
Experimental: as §1, with “discarded. […]” for “discarded.”
At the end of the first incubation period, ^3 H-MTX was added and the incubation was continued for an additional 10 minutes. […] After centrifugation for 10 minutes at 2,000 - 3,000 × G to pellet the charcoal, the radioactivity in the clear supernatant was determined by liquid scintillation counting. […]
The specificity of the binder was determined by incubating the following compounds in direct competitive and sequential binding assays with ^3 H-MTX: pteroylmonoglutamate (Folic Acid, Nutritional Biochemicals); 5-methyltetrahydrofolic acid (Sigma Chemical Co.); 5-formyltetrahydrofolicacid (Leucovorin, Lederle Co.); adenosine, guanylic acid, para-aminobenzoylglutamate and 6-carboxypterin (Sigma Chemical Co.); pteroylheptaglutamate and aminopterin.

[6] = Endogenous MTX level in serum and CSF of patients who had received MTX; type: in vivo; conditions: 6 hours to 6 days after oral, parenteral or intrathecal MTX
Experimental: as §3

Q: With NC(=O)C1=CN([C@@H]2O[C@H](COP(=O)(O)OP(=O)(O)OC[C@H]3O[C@@H](n4cnc5c(N)ncnc54)[C@H](OP(=O)(O)O)[C@@H]3O)[C@@H](O)[C@H]2O)C=CC1 [NADPH2, reduced nicotinamide adenine dinucleotide phosphate] as the compound, how does the “stability in buffer A with albumin” value [1] read?
A: Its value is “stable for several days”.

Q: With NC(=O)C1=CN([C@@H]2O[C@H](COP(=O)(O)OP(=O)(O)OC[C@H]3O[C@@H](n4cnc5c(N)ncnc54)[C@H](O)[C@@H]3O)[C@@H](O)[C@H]2O)C=CC1 [NADH] as the compound, how does the “maximum binding of MTX obtained with cofactor substituted for NADPH2” value ([2]; concentrations up to 200,000 times the optimal amount of NADPH2) read?
A: Its value is 40%.

Q: For Nc1nc2ncc(CNc3ccc(C(=O)N[C@@H](CCC(=O)O)C(=O)O)cc3)nc2c(=O)[nH]1 [^3 H-folic acid], which “binding of labeled folate by the binder preparation” value [3] is on record?
A: Its value is “did not bind”.

Q: Which results are given for NC(=O)c1ccc[n+]([C@@H]2O[C@H](COP(=O)([O-])OP(=O)(O)OC[C@H]3O[C@@H](n4cnc5c(N)ncnc54)[C@H](OP(=O)(O)O)[C@@H]3O)[C@@H](O)[C@H]2O)c1 [NADP, Nicotinamide adenine dinucleotide phosphate]?
A: binding of ^3H-MTX with cofactor substituted for NADPH2 [2]: did not allow binding of ^3 H-MTX; inhibition of the MTX binding reaction [2]: did not inhibit the binding reaction

Q: With NC(=O)c1ccc[n+]([C@@H]2O[C@H](COP(=O)([O-])OP(=O)(O)OC[C@H]3O[C@@H](n4cnc5c(N)ncnc54)[C@H](O)[C@@H]3O)[C@@H](O)[C@H]2O)c1 [NAD, nicotinamide adenine dinucleotide] as the compound, how does the “binding of ^3H-MTX with cofactor substituted for NADPH2” value [2] read?
A: The value was “did not allow binding of ^3 H-MTX”.

Q: And the “inhibition of the MTX binding reaction” value [2]?
A: The value was “did not inhibit the binding reaction”.

Q: For O=C1O[C@H]([C@@H](O)CO)C(O)=C1O [ascorbic acid], which “effect on the assay” value [4] is on record?
A: Its value is “did not affect the assay”.

Q: Which “competition for ^3H-MTX binding sites” value [5] does the source give for Nc1nc(N)c2nc(CNc3ccc(C(=O)N[C@@H](CCC(=O)O)C(=O)O)cc3)cnc2n1 [aminopterin, N-{p-[(2,4-diamino-6-pteridylmethyl)amino]benzoyl}-glutamic acid] here?
A: Its value is “competed for ^3 H-MTX binding sites”.

Q: Which “Endogenous MTX, CSF” value [6] does the source give for CN(Cc1cnc2nc(N)nc(N)c2n1)c1ccc(C(=O)N[C@@H](CCC(=O)O)C(=O)O)cc1 [MTX, N-[p-(2,4-diamino-6-pteridylmethyl)methylaminobenzoyl]-glutamic acid] here?
A: Its value is 8 Nanograms per ml.

Q: Which “binding of labeled folate by the binder preparation” value [3] does the source give for [14CH3]N1c2c([nH]c(N)nc2=O)NCC1CNc1ccc(C(=O)N[C@@H](CCC(=O)O)C(=O)O)cc1 (some centres unmarked) [^14 C-5-methyltetrahydrofolic acid] here?
A: Its value is “did not bind”.
